Reference: patent publication US20260193296A1 (priority 2023, published 2026)
pIC50: −log10 of the molar value. Read-outs that look alike come from different tables or passages of the source. Ends that are not written are not given here.

What was measured:
CLas cells = format: cell-based, Candidatus Liberibacter asiaticus (CLas); conditions: for lysis of Huanglongbing pathogens: summary statement, demonstrated by experiments
[1] = system: Huanglongbing pathogen CLas; format: cell-based, Candidatus Liberibacter asiaticus (CLas); conditions: for CLas titer in infected leaf midribs: 1 μM artificially synthesized peptide; for number of pathogens in citrus infected with Huanglongbing: summary statement, demonstrated by experiments
[2] = system: Huanglongbing pathogen CLas; conditions: for pIC50: read-out: CLas half inhibitory concentration (IC50), treated for 48 hours, FIG. 4C
[3] = system: Huanglongbing pathogen CLas; format: in vivo, Candidatus Liberibacter asiaticus (CLas)
Huanglongbing pathogens = format: in vivo, citrus (Chunmi orange); conditions: field, whole plant, same injection method, two months after treatment; FIG. 6
[4] = system: Huanglongbing pathogen CLas; format: cell-based, Candidatus Liberibacter asiaticus (CLas); conditions: for inhibitory effect on CLas after heat pretreatment: used at 1 μM, 48 h, compared with BSA, FIG. 4D

Row | Sequence | lysis of Huanglongbing pathogens (CLas cells) | CLas titer in infected leaf midribs ([1]; 48 h, FIG. 4A) | number of pathogens in citrus infected with Huanglongbing [1] | other results
1 | DPMIWGYVMLNDRLSK [AMP9-16, truncated peptide of AMP9] | promote lysis of Huanglongbing pathogens | significantly reduce the CLas titer | reduce the number of pathogens | –
2 | DPMIWGYVMLNDSK [AMP-β, variant containing conserved β-sheet region; synthesized and also made by prokaryotic expression] | promote lysis of Huanglongbing pathogens | significantly reduce the CLas titer | reduce the number of pathogens | –
3 | DPMIWGYVMLSESK [AMP3-14, DPMIWGYVMLSESK] | promote lysis of Huanglongbing pathogens | significantly reduce the CLas titer | reduce the number of pathogens | effectiveness in reducing the CLas titer compared with AMP3 ([2]; from IC50 values at 48 hours): more effective in reducing the CLas titer; pIC50 [2]: 6.00; symptoms of yellowing in leaves of infected plants ([3]; 1 μM solution, continuous trunk infusion, 6 months, FIG. 5B): disappeared; Ct value of CLas in infected plants ([3]; 1 μM solution, continuous trunk infusion, 6 months, FIG. 5C): not significantly different from that of healthy plants; Ct value of CLas in treated plants after removal of treatment ([3]; treatment removed after 7 months, titer monitored continuously): still not significantly different from that of healthy plants; destruction of pathogenic cells compared with AMP3 (transmission electron microscope) (CLas cells; 1 μM, 24 hours, FIG. 7): better effect on the destruction of pathogenic cells; growth of new citrus leaves (Huanglongbing pathogens): significantly promote the growth of new citrus leaves; CLas titer in infected leaf veins ([1]; 100 nM artificially synthesized peptide, 48 h, FIG. 4A): significantly reduce the CLas titer; thermal stability ([4]; 35° C. and 45° C. for 20 hours): good thermal stability; inhibitory effect on CLas after heat pretreatment ([4]; pretreated at 35° C. for 20 hours): still significant; inhibitory effect on CLas after heat pretreatment ([4]; pretreated at 45° C. for 20 hours): still significant
4 | DPMIWGYVMLSESKDPMIWGYVMLNDSK [AMP-2β, dimer of β-sheet fragments obtained by prokaryotic expression and purification] | promote lysis of Huanglongbing pathogens | – | reduce the number of pathogens | –
5 | MKKVKNIFHKIANA [AMP-α, contains only an α-helix fragment] | – | not able to change the CLas titer | – | –
6 | MKKVKNIFHKIANADPMIWGYVML [AMP3-24, truncated peptide of AMP3] | promote lysis of Huanglongbing pathogens | – | reduce the number of pathogens | –
7 | MKKVKNIFHKIANADPMIWGYVMLNDRLSK [AMP9] | promote lysis of Huanglongbing pathogens | significantly reduce the CLas titer | reduce the number of pathogens | –
8 | MKKVKNIFHKIANADPMIWGYVMLSESK [AMP3] | promote lysis of Huanglongbing pathogens | significantly reduce the CLas titer | reduce the number of pathogens | pIC50 [2]: 4.28
